Assay in all cases: DTP human tumour cell line panel, 48 h
Experiment [1] deals with SW-620 colon.
Experiment [2] has as its system RXF 393 renal.
For experiment [3], the system named is A498 renal.
In experiment [4] the test system is UACC-62 melanoma.
Experiment [5] deals with UO-31 renal.
The test system of experiment [6] is NCI-H226 lung.
Experiment [7] relates to UACC-257 melanoma.
For experiment [8], the system named is HCT-116 colon.
Experiment [9] has as its system SNB-19 CNS.

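Assay format: 96-well plates, 48-hour exposure. GI50 marks 50% less growth. Definition used: TGI = concentration required for complete inhibition of growth.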

For `COc1cc(C(=O)Nc2cc3c(cc2Oc2cc(C)cc(C)c2)C(=O)N(C)[C@@H](CC(=O)N(C)O)C(=O)N3)c(Br)c(OC)c1OC`, the GI50 (usually the concentration giving 50% growth inhibition) in experiment [1] is less than 0.00333 µM; in experiment [2], less than 0.00333 µM; in [3], less than 0.00333 µM; in experiment [4], less than 0.00333 µM; in experiment [5] it was 0.0255 µM; in [6] it was less than 0.00333 µM. The GI50 in experiment [7], in experiment [8] and in [9] was less than 0.00333 µM each time. The TGI (commonly the concentration giving total growth inhibition) is 0.0149 µM in experiment [1]; 0.00609 µM in [2]; 0.00573 µM in [3]; less than 0.00333 µM in experiment [4]; 0.413 µM in [5]; 0.0128 µM in experiment [6]. For the same compound, the TGI in [7] is 0.00475 µM; in experiment [8], less than 0.00333 µM; in experiment [9], 0.00576 µM.
For `COc1cc2c(=O)n(CCN)c3c4cc5c(cc4ccc3c2cc1OC)OCO5`, the GI50 in experiment [1] was 0.23 µM; in experiment [2] it was 1.02 µM; in experiment [3], 1.24 µM; in experiment [4] it was 0.332 µM; in experiment [5], 0.605 µM; in experiment [6], 1.43 µM. The values for the GI50 in experiment [7], in [8] and in [9] were 1.92 µM, 0.285 µM and 0.414 µM, respectively. Further, the total growth inhibition concentration (TGI) was determined as 2.07 µM in experiment [1]; 2.56 µM in [2]; 2.64 µM in experiment [3]; 1.96 µM in [4]; 2.1 µM in experiment [5]; 3.59 µM in experiment [6]. Besides, the values for the TGI in experiment [7], in [8] and in experiment [9] were 13.3 µM, 1.31 µM and 1.97 µM, respectively.
For the compound `Cn1c2c(c3ccc(Cl)c(Cl)c31)C(C#N)C1(CCNCC1)NC2=O` (stereo not drawn), the GI50 was 1.65 µM in experiment [1]; 1.52 µM in experiment [2]; 1.24 µM in [3]; 1.63 µM in [4]; 1.23 µM in experiment [5]; 2.24 µM in experiment [6]. Moreover, the GI50 in [7] is 1.75 µM; in [8] it was 1.39 µM; in [9], 3.1 µM. Moreover, the TGI in experiment [1] is 3.26 µM; in experiment [2], 5.79 µM; in experiment [3] it was 2.95 µM; in experiment [4] it was 3.31 µM; in [5], 4.46 µM; in experiment [6], 12.7 µM. Moreover, the TGI was 3.69 µM in [7], 2.92 µM in experiment [8] and 13 µM in [9].
For `CCn1c(-c2nonc2N)nc2c(C#CC(C)(C)O)nc(OCCNC)cc21`, the GI50 in [1] was 6.68 µM; in experiment [2], 4.13 µM; in [3], 1.35 µM; in experiment [4], 6.08 µM; in experiment [5] it was 8.9 µM; in experiment [6], 8.09 µM. Also, the GI50 in experiment [7] was 7.96 µM; in experiment [8], 7.14 µM; in [9], 8.4 µM. The TGI was more than 25 µM in experiment [1]; 11 µM in [2]; 9.43 µM in [3]; 16.9 µM in experiment [4]; more than 25 µM in experiment [5]; more than 23.1 µM in experiment [6]. Also, the TGI in [7] is 24.7 µM; in experiment [8], more than 21.6 µM; in [9], more than 25 µM.
With `O=C1c2cc(Cl)ccc2-c2c1c1ccc([N+](=O)[O-])cc1c(=O)n2CCCBr`, the GI50 in [1] is 3.78 µM; in experiment [2], 17.6 µM; in experiment [3], 24.2 µM; in experiment [4], 3.45 µM; in experiment [5], 2.64 µM; in experiment [6], 11.5 µM. Also, the values for the GI50 in [7], in experiment [8] and in [9] were 41.4 µM, 3.48 µM and 3.74 µM, respectively. The TGI is more than 100 µM in experiment [1]; more than 100 µM in experiment [2]; more than 100 µM in experiment [3]; 39.8 µM in experiment [4]; 31 µM in experiment [5]; more than 100 µM in [6]. Further, the concentration for total growth inhibition (TGI) in [7], in experiment [8] and in [9] was more than 100 µM in each case.
For `COc1ccccc1/C=C/C(=O)c1ccccc1`, the GI50 in experiment [1] was 2.66 µM; in [2], 5.94 µM; in experiment [3], 16.3 µM; in [4] it was 5.17 µM; in [5], 4.69 µM; in [6], 13.3 µM. In addition, the GI50 in experiment [7] was 13.8 µM; in experiment [8] it was 3.5 µM; in [9] it was 12.7 µM. The total growth inhibition concentration (TGI) was found to be 7.08 µM in experiment [1]; 16.1 µM in [2]; 31 µM in experiment [3]; 18.4 µM in experiment [4]; 17.9 µM in [5]; 33.1 µM in experiment [6]. Moreover, the concentration for total growth inhibition (TGI) in [7] is 27.4 µM; in experiment [8], 12.8 µM; in experiment [9], 26.4 µM.
